Measured values reported in patent US10604535B2, “Compounds, compositions and methods” (Denali Therapeutics Inc., priority 2016, dated 2020).
Read-outs that look alike come from different tables or passages of the source. Each block holds one compound with its values, some of them ahead of it.

Columns and labels:
[1] = biological target: GST-hRIPK1 (8-327) (Homo sapiens (Human), UniProt Q13546); assay: Fluorescent Polarization Binding (FP Binding) assay
[2] = system: FADD-deficient Jurkat cells; assay: Cellular necroptosis assay (human TNFα-induced necrosis, CellTiter-Glo); type: cell-based; conditions: Homo sapiens, Jurkat, 48 h, read-out: Cell IC50

GST-hRIPK1 (8-327), sequence (Q13546 8-327): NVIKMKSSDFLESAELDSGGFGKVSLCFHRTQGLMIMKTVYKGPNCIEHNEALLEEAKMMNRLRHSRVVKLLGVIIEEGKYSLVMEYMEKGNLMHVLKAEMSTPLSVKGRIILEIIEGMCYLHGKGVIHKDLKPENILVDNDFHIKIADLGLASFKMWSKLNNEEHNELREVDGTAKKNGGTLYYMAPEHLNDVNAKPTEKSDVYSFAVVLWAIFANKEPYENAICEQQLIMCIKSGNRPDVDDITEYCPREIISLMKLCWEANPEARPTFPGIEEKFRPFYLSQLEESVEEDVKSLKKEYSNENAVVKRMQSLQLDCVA

Compound: C[C@H]1Oc2cccnc2N(C)C(=O)[C@H]1NC(=O)c1cc(Oc2ccccc2F)cnn1 [Example 139, N-((2R,3S)-2,5-dimethyl-4-oxo-2,3,4,5-tetrahydropyrido[3,2-b][1,4]oxazepin-3-yl)-5-(2-fluorophenoxy)pyridazine-3-carboxamide]
IC50 [1]: 0.1 to 1000 nM | IC50 ([2]; TNFα 10 ng/mL): 0.1 to 1000 nM

Compound: C[C@H]1Oc2cccnc2N(C)C(=O)[C@H]1NC(=O)c1cn(Cc2ccccc2)cn1 [Example 140, 1-Benzyl-N-((2R,3S)-2,5-dimethyl-4-oxo-2,3,4,5-tetrahydropyrido[3,2-b][1,4]oxazepin-3-yl)-1H-imidazole-4-carboxamide]
IC50 [1]: 0.1 to 1000 nM | IC50 ([2]; TNFα 10 ng/mL): 0.1 to 1000 nM

Compound: C[C@H]1Oc2cccnc2N(C)C(=O)[C@H]1NC(=O)c1nn(Cc2ccc(F)cc2)cc1F [Example 143, N-((2R,3S)-2,5-dimethyl-4-oxo-2,3,4,5-tetrahydropyrido[3,2-b][1,4]oxazepin-3-yl)-4-fluoro-1-(4-fluorobenzyl)-1H-pyrazole-3-carboxamide]
IC50 [1]: 0.1 to 1000 nM | IC50 ([2]; TNFα 10 ng/mL): 0.1 to 1000 nM

Compound: CN1C(=O)[C@@H](NC(=O)c2nn(Cc3cccc(C#N)c3)cc2F)COc2cccnc21 [Example 144, (S)-1-(3-cyanobenzyl)-4-fluoro-N-(5-methyl-4-oxo-2,3,4,5-tetrahydropyrido[3,2-b][1,4]oxazepin-3-yl)-1H-pyrazole-3-carboxamide]
IC50 [1]: 0.1 to 1000 nM | IC50 ([2]; TNFα 10 ng/mL): 0.1 to 1000 nM

Compound: C[C@H]1Oc2cc(S(C)(=O)=O)cnc2N(C)C(=O)[C@H]1NC(=O)c1nnc(Cc2ccccc2)[nH]1 [Example 147, 5-benzyl-N-((2R,3S)-2,5-dimethyl-8-(methylsulfonyl)-4-oxo-2,3,4,5-tetrahydropyrido[3,2-b][1,4]oxazepin-3-yl)-4H-1,2,4-triazole-3-carboxamide]
IC50 [1]: 0.1 to 1000 nM | IC50 ([2]; TNFα 10 ng/mL): 0.1 to 1000 nM

Compound: CN1C(=O)[C@@H](NC(=O)c2cc(Oc3ccccc3F)cnn2)COc2cccnc21 [Example 149, (S)-5-(2-fluorophenoxy)-N-(5-methyl-4-oxo-2,3,4,5-tetrahydropyrido[3,2-b][1,4]oxazepin-3-yl)pyridazine-3-carboxamide]
IC50 [1]: 0.1 to 1000 nM | IC50 ([2]; TNFα 10 ng/mL): 0.1 to 1000 nM

Compound: C[C@H]1Oc2cc(C#N)cnc2N(C)C(=O)[C@H]1NC(=O)c1nnc(Cc2ccccc2)[nH]1 [Example 150, 5-benzyl-N-((2R,3S)-8-cyano-2,5-dimethyl-4-oxo-2,3,4,5-tetrahydropyrido[3,2-b][1,4]oxazepin-3-yl)-4H-1,2,4-triazole-3-carboxamide]
IC50 [1]: 0.1 to 1000 nM | IC50 ([2]; TNFα 10 ng/mL): 0.1 to 1000 nM

Compound: CN1C(=O)[C@@H](NC(=O)c2nc(C#N)c(Cc3ccccc3)s2)COc2cccnc21 [Example 151, (S)-5-benzyl-4-cyano-N-(5-methyl-4-oxo-2,3,4,5-tetrahydropyrido[3,2-b][1,4]oxazepin-3-yl)thiazole-2-carboxamide]
IC50 [1]: 0.1 to 1000 nM | IC50 ([2]; TNFα 10 ng/mL): 0.1 to 1000 nM

Compound: CN1C(=O)[C@@H](NC(=O)c2cc(C#N)n(Cc3ccccc3)n2)COc2cccnc21 [Example 158, (S)-1-benzyl-5-cyano-N-(5-methyl-4-oxo-2,3,4,5-tetrahydropyrido[3,2-b][1,4]oxazepin-3-yl)-1H-pyrazole-3-carboxamide]
IC50 [1]: 0.1 to 1000 nM | IC50 [2]: 0.1 to 1000 nM

Compound: CN1C(=O)[C@@H](NC(=O)c2nnc(Cc3cc(F)cc(C#N)c3)[nH]2)COc2cccnc21 [Example 162, (S)-5-(3-cyano-5-fluorobenzyl)-N-(5-methyl-4-oxo-2,3,4,5-tetrahydropyrido[3,2-b][1,4]oxazepin-3-yl)-4H-1,2,4-triazole-3-carboxamide]
IC50 [1]: 0.1 to 1000 nM | IC50 ([2]; TNFα 10 ng/mL): 0.1 to 1000 nM

Compound: CN1C(=O)[C@@H](NC(=O)c2ncc(Cc3cccc(C#N)c3)s2)COc2ccccc21 [Example 164, (S)-5-(3-cyanobenzyl)-N-(5-methyl-4-oxo-2,3,4,5-tetrahydrobenzo[b][1,4]oxazepin-3-yl)thiazole-2-carboxamide]
IC50 [1]: 0.1 to 1000 nM | IC50 ([2]; TNFα 10 ng/mL): 0.1 to 1000 nM

Compound: CN1C(=O)[C@@H](NC(=O)c2cc(F)n(Cc3ccccc3)n2)COc2cccnc21 [Example 165, (S)-1-benzyl-5-fluoro-N-(5-methyl-4-oxo-2,3,4,5-tetrahydropyrido[3,2-b][1,4]oxazepin-3-yl)-1H-pyrazole-3-carboxamide]
IC50 [1]: 0.1 to 1000 nM | IC50 [2]: 0.1 to 1000 nM

Compound: CN1C(=O)[C@@H](NC(=O)c2cc(F)n(Cc3ccc(F)cc3)n2)COc2cccnc21 [Example 166, (S)-5-fluoro-1-(4-fluorobenzyl)-N-(5-methyl-4-oxo-2,3,4,5-tetrahydropyrido[3,2-b][1,4]oxazepin-3-yl)-1H-pyrazole-3-carboxamide]
IC50 [1]: 0.1 to 1000 nM | IC50 ([2]; TNFα 10 ng/mL): 0.1 to 1000 nM

Compound: CN1C(=O)[C@@H](NC(=O)c2nn(Cc3cncc(C#N)c3)cc2F)COc2cccnc21 [Example 168, (S)-1-((5-cyanopyridin-3-yl)methyl)-4-fluoro-N-(5-methyl-4-oxo-2,3,4,5-tetrahydropyrido[3,2-b][1,4]oxazepin-3-yl)-1H-pyrazole-3-carboxamide]
IC50 [1]: 0.1 to 1000 nM | IC50 ([2]; TNFα 10 ng/mL): 0.1 to 1000 nM

Compound: [2H]C([2H])([2H])N1C(=O)[C@@H](NC(=O)c2nnc(Cc3ccccc3)o2)[C@@H](C)Oc2cccnc21 [Example 174, 5-benzyl-N-((2R,3S)-2-methyl-5-trideuteriomethyl-4-oxo-2,3,4,5-tetrahydropyrido[3,2-b][1,4]oxazepin-3-yl)-1,3,4-oxadiazole-2-carboxamide]
IC50 [1]: 0.1 to 1000 nM | IC50 ([2]; TNFα 10 ng/mL): 0.1 to 1000 nM

Continued, in another order:

IC50 [1]: 0.1 to 1000 nM
Compound: CN1C(=O)[C@@H](NC(=O)c2nnc(C3(c4ccccc4)CC3)o2)CCc2cccnc21 [Example 145A, (S)—N-(9-methyl-8-oxo-6,7,8,9-tetrahydro-5H-pyrido[2,3-b]azepin-7-yl)-5-(1-phenylcyclopropyl)-1,3,4-oxadiazole-2-carboxamide]
IC50 ([2]; TNFα 10 ng/mL): 0.1 to 1000 nM

IC50 [1]: 0.1 to 1000 nM
Compound: CN1C(=O)[C@@H](NC(=O)c2nn(Cc3cccc(C#N)c3)cc2F)CCc2cccnc21 [Example 152B, (S)-1-(3-cyanobenzyl)-4-fluoro-N-(9-methyl-8-oxo-6,7,8,9-tetrahydro-5H-pyrido[2,3-b]azepin-7-yl)-1H-pyrazole-3-carboxamide]
IC50 ([2]; TNFα 10 ng/mL): 0.1 to 1000 nM

IC50 [1]: 0.1 to 1000 nM
Compound: CN1C(=O)[C@@H](NC(=O)c2nn(Cc3ccc(F)cc3)cc2F)[C@H]2C[C@H]2c2cccnc21 [Example 156B, 4-fluoro-1-(4-fluorobenzyl)-N-((1aS,2S,8bR)-4-methyl-3-oxo-1,1a,2,3,4,8b-hexahydrocyclopropa[d]pyrido[2,3-b]azepin-2-yl)-1H-pyrazole-3-carboxamide]
IC50 ([2]; TNFα 10 ng/mL): 0.1 to 1000 nM

IC50 [1]: 0.1 to 1000 nM
Compound: CN1C(=O)[C@@H](NC(=O)c2nnc(Cc3ccccc3)o2)[C@H]2C[C@H]2c2cccnc21 [Example 157B, 5-benzyl-N-((1aS,2S,8bR)-4-methyl-3-oxo-1,1a,2,3,4,8b-hexahydrocyclopropa[d]pyrido[2,3-b]azepin-2-yl)-1,3,4-oxadiazole-2-carboxamide]
IC50 ([2]; TNFα 10 ng/mL): 0.1 to 1000 nM

IC50 [1]: 0.1 to 1000 nM
Compound: CN1C(=O)[C@@H](NC(=O)c2nnc(Cc3ccccc3)o2)C2(CC2)Oc2cccnc21 [Example 160A, (S)-5-benzyl-N-(5′-methyl-4′-oxo-4′,5′-dihydro-3′H-spiro[cyclopropane-1,2′-pyrido[3,2-b][1,4]oxazepin]-3′-yl)-1,3,4-oxadiazole-2-carboxamide]
IC50 ([2]; TNFα 10 ng/mL): 0.1 to 1000 nM

IC50 [1]: 0.1 to 1000 nM
Compound: CN1C(=O)[C@@H](NC(=O)c2nn(Cc3ccccc3F)cc2F)CCc2nccnc21 [Example 178A, (S)-4-fluoro-1-(2-fluorobenzyl)-N-(5-methyl-6-oxo-6,7,8,9-tetrahydro-5H-pyrazino[2,3-b]azepin-7-yl)-1H-pyrazole-3-carboxamide]
IC50 ([2]; TNFα 10 ng/mL): 0.1 to 1000 nM
